Test results reported in patent publication US20130296311A1, “INHIBITORS OF HCV NS5A” (PRESIDIO PHARMACEUTICALS, INC., priority 2010, published 2013).

test system: HCV 1b_Huh-Luc/Neo-ET cell line persistently expressing a bicistronic genotype 1b replicon in Huh 7 cells; experiment: HCV replicon assay (luciferase readout, 72 h); type: cell-based, HCV genotype 1b; settings: Hepatitis C virus, Huh-7, 72 h, read-out: Inhibition of HCV genotype 1b
Protocol: Biological activity of the compounds of the invention was determined using an HCV replicon assay. The HCV 1b_Huh-Luc/Neo-ET cell line persistently expressing a bicistronic genotype 1b replicon in Huh 7 cells was obtained from ReBLikon GMBH. This cell line was used to test compound inhibition using luciferase enzyme activity readout as a measurement of compound inhibition of replicon levels.
On Day 1 (the day after plating), each compound is added in triplicate to the cells. Plates incubated for 72 h prior to running the luciferase assay. Enzyme activity was measured using a Bright-Glo Kit (cat. number E2620) manufactured by Promega Corporation. The following equation was used to generate a percent control value for each compound.
% Control=(Average Compound Value/Average Control)*100
The EC50 value was determined using GraphPad Prism and the following equation:
Y=Bottom+(Top-Bottom)/(1+10̂((LogIC50−X)*HillSlope))
EC50 values of compounds are determined several times in the replicon assay.
Example compounds of the disclosed invention are illustrated in Tables 1-16 attached as appendices. The tables show inhibitory activity of many of the example compounds with respect to HCV 1b. […] The tables further provide mass spectrometry results for the synthesized example compounds.

COC(=O)N[C@H](C(=O)N1CC[C@H](O)[C@H]1c1ncc(-c2ccc(C#Cc3ccc4nc([C@@H]5CCCN5C(=O)[C@@H](NC(=O)OC)C(C)C)[nH]c4c3)cc2)[nH]1)C(C)C [Compound 1068] and COC(=O)N[C@H](C(=O)N1CSC[C@H]1c1ncc(-c2ccc(C#Cc3ccc4nc([C@@H]5CCCN5C(=O)[C@@H](NC(=O)OC)C(C)C)[nH]c4c3)cc2)[nH]1)C(C)C [Compound 1026] cannot be ordered by EC50: under 1 nM for the first, under 1 nM for the second.

COC(=O)N[C@H](C(=O)N1CCC[C@H]1c1nc2c([nH]1)-c1ccc(C#Cc3ccc4nc([C@@H]5CCCN5C(=O)[C@@H](NC(=O)OC)C(C)C)[nH]c4c3)cc1CC2)C(C)C [Compound 1101] and COC(=O)NC(C(=O)N1CCC[C@H]1c1nc2ccc(C#Cc3ccc4cc(-c5cnc([C@@H]6CCCN6C(=O)[C@@H](NC(=O)OC)C(C)C)[nH]5)ccc4n3)cc2[nH]1)C(C)C (some centres unmarked) [Compound 1107] cannot be ordered by EC50: under 1 nM for the first, under 1 nM for the second.

COC(=O)N[C@H](C(=O)N1CCC[C@H]1c1ncc(-c2ccc3nc(C#Cc4ccc5nc([C@@H]6CCCN6C(=O)[C@@H](NC(=O)OC)C6CCOCC6)[nH]c5c4)ccc3c2)[nH]1)C1CCOCC1 [Compound 1108] and COC(=O)N[C@H](C(=O)N1CCC[C@H]1c1ncc(-c2ccc(C#Cc3ccc4nc([C@@H]5CCCN5C(=O)[C@@H](NC(=O)OC)C5CC5)[nH]c4c3)cc2)[nH]1)C1CC1 [Compound 1029] cannot be ordered by EC50: under 1 nM for the first, under 1 nM for the second.

O=C(N[C@@H](C(=O)N1CCC[C@H]1c1cc(-c2ccc(C#Cc3ccc(-c4cnc([C@@H]5CCCN5C(=O)[C@H](NC(=O)[C@@H]5CCCO5)c5ccccc5)[nH]4)cc3)cc2)n[nH]1)c1ccccc1)[C@@H]1CCCO1 [Compound 214] and CN1CCC(C(=O)N[C@@H](C(=O)N2CCC[C@H]2c2cc(-c3ccc(C#Cc4ccc(-c5cnc([C@@H]6CCCN6C(=O)[C@H](NC(=O)C6CCN(C)CC6)c6ccccc6)[nH]5)cc4)cc3)n[nH]2)c2ccccc2)CC1 [Compound 223-1] cannot be ordered by EC50: under 1 nM for the first, under 1 nM for the second.

CN(C)[C@@H](C(=O)N1CCC[C@H]1c1ncc(-c2ccc(C#Cc3ccc(-c4cnc([C@@H]5CCCN5C(=O)[C@H](NC(=O)C5CC5)c5ccccc5)[nH]4)cc3)cc2)[nH]1)c1ccccc1 [Compound 215] and COC(=O)N[C@@H](C(=O)N1CCC[C@H]1c1ncc(-c2ccc(C#Cc3ccc(-c4cnc([C@@H]5CCCN5C(=O)[C@H](NC(=O)C5CC5)c5ccccc5)[nH]4)cc3)cc2)[nH]1)c1ccccc1 [Compound 218] cannot be ordered by EC50: under 1 nM for the first, under 1 nM for the second.

C[C@H]1OC(=O)N(C)[C@@H]1C(=O)N1CCC[C@H]1c1ncc(-c2ccc(C#Cc3ccc(-c4cnc([C@@H]5CCCN5C(=O)[C@@H]5[C@@H](C)OC(=O)N5C)[nH]4)cc3)cc2)[nH]1 [Compound 980] and C[C@@H]1OC(=O)N[C@H]1C(=O)N1CCC[C@H]1c1ncc(-c2ccc(C#Cc3ccc(-c4cnc([C@@H]5CCCN5C(=O)[C@@H]5NC(=O)O[C@H]5C)[nH]4)cc3)cc2)[nH]1 [Compound 1000] fall in the same range of EC50: 10 to 999 nM for the first, 10 to 999 nM for the second.

COC(=O)N[C@@H](CC(C)C)C(=O)N1CCC[C@H]1c1ncc(-c2ccc(C#Cc3ccc4nc([C@@H]5CCCN5C(=O)[C@H](CC(C)C)NC(=O)OC)[nH]c4c3)cc2)[nH]1 [Compound 1067] and COC(=O)N[C@H](C(=O)N1CCC[C@H]1c1ncc(-c2ccc(C#Cc3ccc(-c4cnc([C@@H]5CCCN5C(=O)[C@@H](NC(=O)OC)C(C)C)[nH]4)cc3)cc2)[nH]1)C(C)C [Compound 266] cannot be ordered by EC50: under 1 nM for the first, under 1 nM for the second.

First: COC(=O)N[C@H](C(=O)N[C@H](c1ncc(-c2ccc(C#Cc3ccc(-c4cnc([C@@H]5CCCN5C(=O)[C@@H](NC(=O)OC)C(C)C)[nH]4)cc3)cc2)[nH]1)C(C)C)C(C)C [Compound 276]
Second: COC(=O)N[C@H](C(=O)N(C)[C@@H](C)c1ncc(-c2ccc(C#Cc3ccc(-c4cnc([C@@H]5CCCN5C(=O)[C@@H](NC(=O)OC)C(C)C)[nH]4)cc3)cc2)[nH]1)C(C)C [Compound 267]
The EC50 of the first is higher: 1 to 9.9 nM for the first, under 1 nM for the second.

COC(=O)N[C@H](C(=O)N1CCC[C@H]1c1ncc(-c2ccc(C#Cc3ccc(-c4cnc([C@@H]5CCCN5C(=O)[C@H](NC(=O)N5CC[C@H](O)C5)c5ccccc5)[nH]4)cc3)cc2)[nH]1)C(C)C [Compound 974] and COC(=O)N[C@H](C(=O)N1CCC[C@H]1c1ncc(-c2ccc(C#Cc3ccc(-c4cnc([C@@H]5CCCN5C(=O)[C@H](NC(=O)N5CCC(C)(O)CC5)c5ccccc5)[nH]4)cc3)cc2)[nH]1)C(C)C [Compound 992] cannot be ordered by EC50: under 1 nM for the first, under 1 nM for the second.

COC(=O)N[C@@H](C(=O)N1CCC[C@H]1c1ncc(-c2ccc(C#Cc3ccc(-c4cnc([C@@H]5CCCN5C(=O)[C@H](NC(=O)N5CC[C@H](O)C5)c5ccccc5)[nH]4)cc3)cc2)[nH]1)c1ccccc1 [Compound 269] and COC(=O)N[C@@H](C(=O)N1CCC[C@H]1c1ncc(-c2ccc(C#Cc3ccc(-c4cnc([C@@H]5CCCN5C(=O)[C@H](NC(=O)N5CCC[C@H](O)C5)c5ccccc5)[nH]4)cc3)cc2)[nH]1)c1ccccc1 [Compound 263] cannot be ordered by EC50: under 1 nM for the first, under 1 nM for the second.

COC(=O)N[C@H](C(=O)N1CCC[C@H]1c1nc2c([nH]1)-c1ccc(C#Cc3ccc(-c4cnc([C@@H]5CCCN5C(=O)[C@H](NC(=O)OC)c5ccccc5)[nH]4)cc3F)cc1CC2)C(C)C [Compound 1098] and COC(=O)N[C@H](C(=O)N1CCC[C@H]1c1ncc(-c2ccc(C#Cc3ccc(-c4cnc([C@@H]5CCCN5C(=O)[C@H](NC(=O)N5CCN(C)CC5)c5ccccc5)[nH]4)cc3)cc2)[nH]1)C(C)C [Compound 989] cannot be ordered by EC50: under 1 nM for the first, under 1 nM for the second.

CC(C)(C)OC(=O)N[C@@H](C(=O)N1CCC[C@H]1C(=O)NCc1ccc(C#Cc2ccc(-c3cnc([C@@H]4CCCN4C(=O)[C@H](NC(=O)OC(C)(C)C)c4ccccc4)[nH]3)cc2)cc1)c1ccccc1 [Compound 189] and C[C@H](NC(=O)[C@@H]1CCCN1C(=O)[C@H](NC(=O)C1CC1)c1ccccc1)c1ccc(C#Cc2ccc(-c3cnc([C@@H]4CCCN4C(=O)[C@H](NC(=O)C4CC4)c4ccccc4)[nH]3)cc2)cc1 [Compound 191] cannot be ordered by EC50: under 1 nM for the first, under 1 nM for the second.

COC(=O)N[C@@H](C(=O)N1CCC[C@H]1c1ncc(-c2ccc(C#Cc3ccc(-c4cnc([C@@H]5CCCN5C(=O)[C@H](NC(=O)N5CC[C@H](F)C5)c5ccccc5)[nH]4)cc3)cc2)[nH]1)c1ccccc1 [Compound 270] and COC(=O)N[C@@H](C(=O)N1CCC[C@H]1c1ncc(-c2ccc(C#Cc3ccc(-c4cnc([C@@H]5CCCN5C(=O)[C@H](C)c5ccccc5)[nH]4)cc3)cc2)[nH]1)c1ccccc1 [Compound 256] cannot be ordered by EC50: under 1 nM for the first, under 1 nM for the second.

CN(C)C(=O)N[C@@H](C(=O)N1CCC[C@H]1c1ncc(-c2ccc(C#Cc3ccc(-c4cnc([C@@H]5CCCN5C(=O)[C@H](NC(=O)N(C)C)c5ccccc5)[nH]4)cc3)cc2)[nH]1)c1ccccc1 [Compound 161] and COC(=O)N[C@@H](C(=O)N1CCC[C@H]1c1ncc(-c2ccc(C#Cc3ccc(-c4cnc([C@@H]5CCCN5C(=O)[C@@H](c5ccccc5)N5CCOCC5)[nH]4)cc3)cc2)[nH]1)c1ccccc1 [Compound 185] cannot be ordered by EC50: under 1 nM for the first, under 1 nM for the second.

Compared with CC(C)[C@@H](NC(=O)OC(C)(C)C)C(=O)N1CCC[C@H]1C(=O)NCc1ccc(C#Cc2cnc([C@@H]3CCCN3C(=O)[C@H](NC(=O)OC(C)(C)C)C(C)C)[nH]2)cc1 [Compound 120], COC(=O)N[C@H](C(=O)N1CCC[C@H]1c1ncc(-c2ccc(C#Cc3ccc(-c4cnc([C@@H]5CCCN5C(=O)[C@@H](Nc5cccnc5)C(C)C)[nH]4)cc3)cc2)[nH]1)C(C)C [Compound 995] is lower in EC50: 10 to 999 nM for the first, under 1 nM for the second. The second is the more potent here.

O=C(N[C@@H](C(=O)N1CCC[C@H]1c1ncc(-c2ccc3nc(C#Cc4ccc5nc([C@@H]6CCCN6C(=O)[C@H](NC(=O)OC6CCOCC6)c6ccccc6)[nH]c5c4)ccc3c2)[nH]1)c1ccccc1)OC1CCOCC1 [Compound 1110] and COC(=O)N[C@@H](C(=O)N1CCC[C@H]1c1ncc(C#Cc2ccc(-c3ccc(-c4cnc([C@@H]5CCCN5C(=O)[C@@H](c5ccccc5)N5CCOCC5)[nH]4)cc3)cc2)[nH]1)c1ccccc1 [Compound 758] cannot be ordered by EC50: under 1 nM for the first, under 1 nM for the second.

Compound CC(C)[C@@H](NC(=O)N1CCCC1)C(=O)N1CCC[C@H]1c1ncc(-c2ccc(C#Cc3ccc(-c4cnc([C@@H]5CCCN5C(=O)[C@H](NC(=O)N5CCCC5)C(C)C)[nH]4)cc3)cc2)[nH]1 [Compound 293] has an EC50 of over 1000 nM.

same assay, conditions: Hepatitis C virus, Huh-7, read-out: Inhibition of HCV genotype 1b

COC(=O)N[C@H](C(=O)N1CCC[C@H]1c1ncc(-c2ccc(C#Cc3ccc(-c4cnc([C@@H]5CCCN5C(=O)[C@@H](NC(=O)OC)C5CCOCC5)[nH]4)cc3)cc2)[nH]1)C1CCCC1 [Compound 1221] and CC[C@H](C)[C@H](NC(=O)OC)C(=O)N1CCC[C@H]1c1nc(C)c(C#Cc2ccc3cc(-c4cnc([C@@H]5CCCN5C(=O)[C@@H](NC(=O)OC)[C@@H](C)OC)[nH]4)ccc3c2)[nH]1 [Compound 1265] cannot be ordered by EC50: under 1 nM for the first, under 1 nM for the second.

COC(=O)N[C@H](C(=O)N1CCC[C@H]1c1nc2ccc3cc(C#Cc4ccc5nc([C@@H]6CCCN6C(=O)[C@H](NC(=O)OC6CCOCC6)c6ccccc6)[nH]c5c4)ccc3c2[nH]1)C(C)C [Compound 1276] and COC(=O)N[C@H](C(=O)N1CCC[C@H]1c1ncc(-c2ccc3cc(C#Cc4[nH]c([C@@H]5CCCN5C(=O)[C@@H](NC(=O)OC)C(C)C)nc4C(=O)O)ccc3c2)[nH]1)C(C)C [Compound 1267] cannot be ordered by EC50: under 1 nM for the first, under 1 nM for the second.

For CC[C@H](C)[C@H](NC(=O)OC)C(=O)N1CCC[C@H]1c1nc(C(F)(F)F)c(C#Cc2ccc3cc(-c4cnc([C@@H]5CCCN5C(=O)[C@@H](NC(=O)OC)[C@@H](C)OC)[nH]4)ccc3c2)[nH]1 [Compound 1262], the EC50 was under 1 nM.
